Tests used:
14-3-3ζ/Rubic peptide = target: T1, 14-3-3ζ/Rubic peptide (Homo sapiens, UniProt P63104); test: FA peptide screen, 14-3-3ζ titration to client peptide and compound: Rubic; type: binding; conditions: 250 μM compound, 100 nM peptide; +1 Phe
T1 construct: made in house; host or cells: NiCo21 (DE3) E. coli
Method: (§1) Since the hub protein 14-3-3 binds to hundreds of phosphoprotein partners, selectivity of PPI stabilization is a major challenge. The interplay of chemical reactivity, and the topology and functionality of the composite binding pocket shaped by 14-3-3 and Tau potentially provide entries towards selective stabilization. […] Here, 14-3-3ζ was titrated to a constant concentration of client peptide (100 nM) and compound (250 μM) to determine the SF250μM values for the particular 14-3-3 PPI. A variety of 14-3-3 binding proteins was represented in this client panel whereby the size and hydrophobicity of the +1 amino acid were varied. […]
(§2) chromatography (HisTrap high performance cartridges, Cytiva). Typically two 5 mL columns were used for a 2 L culture in which the lysate was loaded on the column, washed with 10 CV wash buffer (50 mM Hepes, pH 8.0, 300 mM NaCl, 25 mM imidazole, 2 mM βME), and eluted with several fractions (2-4 CV) of elution buffer (50 mM Hepes, pH 8.0, 300 mM NaCl, 250 mM imidazole, 2 mM βME). […] Dialyzed protein was concentrated to ∼40 mg/mL, analyzed by Q -Tof LC/MS, and aliquots were flash -frozen for storage at −80 °C. […] Fractions containing the 14 -3-3 protein were pooled and concentrated to ∼60 mg/mL, analyzed Q -Tof LC/MS, and aliquots were flash -frozen for storage at −80°C.
(§3) Fluorescence Anisotropy – compound titration […]

14-3-3ζ/Raptor peptide = target: T2, 14-3-3ζ/Raptor peptide (Homo sapiens, UniProt P63104); test: FA peptide screen, 14-3-3ζ titration to client peptide and compound: Raptor; type: binding; conditions: 250 μM compound, 100 nM peptide; +1 Tyr
T2 construct: made in house; host or cells: NiCo21 (DE3) E. coli
T2 sequence (P63104 whole entry, other chains not shown): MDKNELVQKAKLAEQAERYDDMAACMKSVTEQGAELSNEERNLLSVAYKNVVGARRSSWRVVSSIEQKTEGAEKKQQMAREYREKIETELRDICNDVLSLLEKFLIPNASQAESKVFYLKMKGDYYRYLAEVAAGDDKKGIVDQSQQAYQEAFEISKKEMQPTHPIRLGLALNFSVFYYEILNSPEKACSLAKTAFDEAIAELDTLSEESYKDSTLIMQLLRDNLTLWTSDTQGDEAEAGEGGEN
Method: as §1, §2, §3

T1 sequence (P63104 whole entry, other chains not shown): as above

Question: Which “stabilization of 14-3-3/Rubic peptide (in words)” value (14-3-3ζ/Rubic peptide) does the source give for `CCc1ccc(-c2nccn2-c2ccc(C=O)c(Br)c2)cc1` [Compound 18] here?
Answer: Its value is “no significant stabilization”.

Question: What about the “stabilization of 14-3-3/Raptor peptide (in words)” value (14-3-3ζ/Raptor peptide) of the same molecule?
Answer: The value was “no significant stabilization”.
